Reference: ChEMBL document CHEMBL1145219, “A new strategy to combat Alzheimer's disease. Combining radical-scavenging potential with metal-protein-attenuating ability in one molecule” (Bioorg Med Chem Lett, 2005)

Tested on: Cell line
Assay: Radical-scavenging potency with metal-protein-attenuating ability in human was determined
Assay type: functional, cell-based

Row | Compound | EC50 (cell line) [nM] | EC50 (Homo sapiens, Cell line) [nM]
1 | N,N0-ethylene bis-(2-acetylpyridine iminato) copper(II) | 11000 | 
2 | c1ccc2[nH]c(CN3CCNCCN(Cc4nc5ccccc5[nH]4)CC3)nc2c1 |  | 760
3 | N,N0-butylene bis-(2-acetylpyridine iminato) copper(II) | 560 | 
4 | N,N0-propylene bis-(2-acetylpyridine iminato) copper(II) | 2330 | 
5 | c1ccc2[nH]c(CN3CCNCCNCC3)nc2c1 |  | 900
